Data: PMC10831071, “Reaction hijacking inhibition of Plasmodium falciparum asparagine tRNA synthetase” (Nature Communications, 2024)
“And” between values parts separate entries of the source, which are not always exact repeats. Equal entries are not always repeated. Where two headings read alike, the source gives them in different places.

Columns and labels:
P. falciparum (3D7) = test: Activity against P. falciparum 3D7 cultures, 72 h (PfLDH growth inhibition / flow cytometry); type: cell-based, Plasmodium falciparum
Protocol: Antimalarial activity against P. falciparum 3D7 was tested by TCGLS, Kolkata, India, using the lactate dehydrogenase (PfLDH) growth inhibition assay. […] Plates were shaken to ensure mixing and were placed in the dark at 21 °C for 20 min. […] P. falciparum strain (3D7) was obtained from BEI Resources.
(§1) Viability was assessed in the second cycle by flow cytometry, following labeling with 2 μM Syto-61 (Thermo Fisher Scientific)[48],[49]. Viability represents the parasitemia normalized to untreated and “kill” controls that were treated with 2 μM dihydroartemisinin (DHA; Sigma-Aldrich) for 48–72 h. For drug pulse assays, tightly synchronized Cam3.II-rev[50] parasites (1–1.5% parasitemia, 0.2% final hematocrit) were added to the plates and incubated for 6 h. Drugs were removed and the parasitemia assessed in the trophozoite stage of the next cycle.

[1] = tested on: P. falciparum Dd2-B2 clone; test: microbe, parasite or virus in culture; type: cell-based, Plasmodium falciparum; settings: Plasmodium falciparum, DD2
From the text: Wells were monitored daily by smear during the first 7 days to ensure parasite clearance, during which media was changed daily. […] Whole-genome sequencing analysis employed MiSeq data from libraries of 2 × 300 bp paired end reads.

[2] = tested on: P. falciparum Cam3.II-rev; test: Drug pulse (6 h) viability assay; type: cell-based, Plasmodium falciparum
Protocol: as §1

PfAsnRS = PfAsnRS (Plasmodium falciparum, UniProt O96198); test: biochemical
Sequence of PfAsnRS (O96198 entry or part of it): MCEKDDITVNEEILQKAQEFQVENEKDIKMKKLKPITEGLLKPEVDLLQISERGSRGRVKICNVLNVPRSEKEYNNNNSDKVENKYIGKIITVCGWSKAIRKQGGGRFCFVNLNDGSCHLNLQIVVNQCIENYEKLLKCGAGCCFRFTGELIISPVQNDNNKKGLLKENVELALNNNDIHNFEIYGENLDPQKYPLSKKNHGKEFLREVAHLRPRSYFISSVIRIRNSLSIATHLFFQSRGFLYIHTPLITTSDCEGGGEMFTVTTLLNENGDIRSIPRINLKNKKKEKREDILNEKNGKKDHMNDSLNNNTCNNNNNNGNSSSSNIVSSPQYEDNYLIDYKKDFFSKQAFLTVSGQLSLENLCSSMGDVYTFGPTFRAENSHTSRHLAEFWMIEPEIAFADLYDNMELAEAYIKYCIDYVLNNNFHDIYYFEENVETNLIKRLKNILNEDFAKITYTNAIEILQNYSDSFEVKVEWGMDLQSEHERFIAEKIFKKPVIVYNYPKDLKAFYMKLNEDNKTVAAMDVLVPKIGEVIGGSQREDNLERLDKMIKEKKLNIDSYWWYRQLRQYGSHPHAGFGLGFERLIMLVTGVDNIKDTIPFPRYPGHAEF

[3] = Metabolic stability in human liver microsomes; type: in vitro ADME; settings: n = 2
Protocol: A solution of the test compounds in phosphate buffer solution (1 µM) was incubated in pooled human and mouse liver microsomes (0.5 mg/ml) for 0, 5, 20, 30, 45 and 60 min at 37 °C in the presence and absence of an NADPH regeneration system (NRS). The tests were carried out by TCGLS, Kolkata, India. The reaction was terminated with the addition of ice-cold acetonitrile, containing a […] standard, at designated time points. The sample was centrifuged (3300 × g) for 20 min at 20 °C and the supernatant was diluted by half in water and then analyzed by LC-MS/MS. The % parent compound remaining, half-life (T1/2) and clearance (CLint,app) were calculated using standard methodology. The experiment was carried out in duplicate. Verapamil, diltiazem, phenacetin and imipramine were used as reference standards.

HsAsnRS = target: T1, HsAsnRS (Homo sapiens, UniProt O43776); test: ATP consumption assay (Kinase-Glo), HsAsnRS; type: biochemical; settings: for ATP consumption: HsAsnRS, normalised to 1 (Fig 3C)
T1 construct: HsAsnRS (residues M1–P548) and CDHsAsnRS (residues A98–P548); His6 (N, cleaved yes); made in house; host or cells: E. coli BL21 (DE3), pET11a
T1 sequence (O43776 1-548): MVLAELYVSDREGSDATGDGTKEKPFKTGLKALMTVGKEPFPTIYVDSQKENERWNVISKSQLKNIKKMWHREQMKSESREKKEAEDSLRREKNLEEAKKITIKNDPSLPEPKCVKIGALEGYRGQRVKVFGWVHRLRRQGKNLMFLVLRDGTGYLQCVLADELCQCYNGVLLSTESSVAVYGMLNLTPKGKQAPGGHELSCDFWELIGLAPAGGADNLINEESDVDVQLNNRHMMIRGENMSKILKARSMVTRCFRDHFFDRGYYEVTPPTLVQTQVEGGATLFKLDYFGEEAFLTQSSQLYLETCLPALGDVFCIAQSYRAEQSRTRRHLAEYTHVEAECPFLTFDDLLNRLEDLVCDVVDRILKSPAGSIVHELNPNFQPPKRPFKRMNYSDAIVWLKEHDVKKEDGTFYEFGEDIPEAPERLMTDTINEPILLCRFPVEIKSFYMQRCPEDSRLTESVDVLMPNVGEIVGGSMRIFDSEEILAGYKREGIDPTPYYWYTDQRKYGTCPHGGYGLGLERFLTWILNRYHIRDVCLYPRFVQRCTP

[4] = Stability in rat hepatocytes; type: in vitro ADME
[5] = tested on: Dd2 parasites selected with OSM-S-106; test: Sensitivity of ramp-up OSM-S-106-selected Dd2 clones; type: cell-based; settings: Plasmodium falciparum

Structure (SMILES): Nc1ncnc2cc(-c3cccc(S(N)(=O)=O)c3)sc12 [OSM-S-106]
- IC50 (P. falciparum (3D7); Plasmodium falciparum, 3D7, 72 h, read-out: Pf3D7 IC50(72 h), 72 h, mean ± SD or duplicate values): 58 ± 17 nM
- IC50 (P. falciparum (3D7); Plasmodium falciparum, 3D7, read-out: amount needed to kill parasite cultures): ~60 nM
- IC50 (P. falciparum (3D7); read-out: Pf3D7 IC50 (72h), individual biological repeats (source data of Table 1)): 61.1 nM and 52.7 nM and 87.1 nM and 79.6 nM and 50.5 nM and 48.8 nM and 37.9 nM and 43.7 nM
- IC50 [1]: 88.9 nM
- IC90 [1]: 169 nM
- Viability ([2]; 78.1 nM, 6 h pulse, individual experiments, 0 nM = 100): 93.5356 and 88.7263
- Viability ([2]; 156.3 nM, 6 h pulse, individual experiments, 0 nM = 100): 81.4036 and 83.8337
- Viability ([2]; 312.5 nM, 6 h pulse, individual experiments, 0 nM = 100): 81.9846 and 75.9519
- Viability ([2]; 625 nM, 6 h pulse, individual experiments, 0 nM = 100): 76.0359 and 75.5937
- Viability ([2]; 1250 nM, 6 h pulse, individual experiments, 0 nM = 100): 77.505 and 78.8039
- Viability ([2]; 2500 nM, 6 h pulse, individual experiments, 0 nM = 100): 63.2365 and 57.9681
- Viability ([2]; 5000 nM, 6 h pulse, individual experiments, 0 nM = 100): 58.8326 and 46.673 and 10.7308
- Viability ([2]; 10000 nM, 6 h pulse, individual experiments, 0 nM = 100): 6.448 and 2.352 and 1.857
- Viability ([2]; 20000 nM, 6 h pulse, individual experiments, 0 nM = 100): 0 and 0.3604 and 0.5288
- Viability ([2]; 40000 nM, 6 h pulse, individual experiments, 0 nM = 100): 1.032 and 0 (2×)
- viability at 0.0781 µM ([2]; Plasmodium falciparum, 6 h, 78.1 nM, 6 h pulse, individual experiments, 0 nM = 100): 77.5%
- viability at 0.1563 µM ([2]; Plasmodium falciparum, 6 h, 156.3 nM, 6 h pulse, individual experiments, 0 nM = 100): 80.2%
- viability at 0.3125 µM ([2]; Plasmodium falciparum, 6 h, 312.5 nM, 6 h pulse, individual experiments, 0 nM = 100): 81.3%
- viability at 0.625 µM ([2]; Plasmodium falciparum, 6 h, 625 nM, 6 h pulse, individual experiments, 0 nM = 100): 79.9%
- viability at 1.25 µM ([2]; Plasmodium falciparum, 6 h, 1250 nM, 6 h pulse, individual experiments, 0 nM = 100): 79.8%
- viability at […] ([2]; Plasmodium falciparum, 6 h, 2500 nM, 6 h pulse, individual experiments, 0 nM = 100): 77.1%
- IC50 ([2]; Plasmodium falciparum, 6 h, read-out: IC50 (Viability)): 4.7 µM
- ATP consumption (PfAsnRS; 0.1 μM OSM-S-106, PfAsnRS + tRNA, 0 μM = 100, 0.1 µM): 82.5658 and 96.0922
- ATP consumption (PfAsnRS; 0.1 μM OSM-S-106, PfAsnRS - tRNA, 0 μM = 100, 0.1 µM): 102.037 and 98.4072 and 106.756 and 97.2403 and 101.662
- ATP consumption (PfAsnRS; 0.1 μM OSM-S-106, PfAsnRS, normalised to 1 (Fig 3C), 0.1 µM): 0.9643 and 0.9875
- ATP consumption (PfAsnRS; 1 μM OSM-S-106, PfAsnRS + tRNA, 0 μM = 100, 1 µM): 57.1862 and 87.1941
- ATP consumption (PfAsnRS; 1 μM OSM-S-106, PfAsnRS - tRNA, 0 μM = 100, 1 µM): 113.687 and 120.029 and 93.4234 and 93.1495 and 103.899
- ATP consumption (PfAsnRS; 1 μM OSM-S-106, PfAsnRS, normalised to 1 (Fig 3C), 1 µM): 0.7028 and 0.7102
- ATP consumption (PfAsnRS; 3 μM OSM-S-106, PfAsnRS, normalised to 1 (Fig 3C), 3 µM): 0.5774 and 0.6156
- ATP consumption (PfAsnRS; 5 μM OSM-S-106, PfAsnRS + tRNA, 0 μM = 100, 5 µM): 38.7619 and 47.6862
- ATP consumption (PfAsnRS; 5 μM OSM-S-106, PfAsnRS - tRNA, 0 μM = 100, 5 µM): 106.249 and 114.714 and 99.7656 and 89.6731 and 97.6484
- ATP consumption (PfAsnRS; 10 μM OSM-S-106, PfAsnRS + tRNA, 0 μM = 100, 10 µM): 33.3781 and 42.1739
- ATP consumption (PfAsnRS; 10 μM OSM-S-106, PfAsnRS - tRNA, 0 μM = 100, 10 µM): 118.679 and 119.307 and 117.388 and 114.394 and 95.1041 and 101.36
- ATP consumption (PfAsnRS; 10 μM OSM-S-106, PfAsnRS, normalised to 1 (Fig 3C), 10 µM): 0.4326 and 0.4705
- ATP consumption (PfAsnRS; 25 μM OSM-S-106, PfAsnRS + tRNA, 0 μM = 100, 25 µM): 31.8347 and 29.629
- ATP consumption (PfAsnRS; 25 μM OSM-S-106, PfAsnRS - tRNA, 0 μM = 100, 25 µM): 125.392 and 106.541 and 117.104 and 104.95 and 102.467 and 90.9619
- ATP consumption (PfAsnRS; 30 μM OSM-S-106, PfAsnRS, normalised to 1 (Fig 3C), 30 µM): 0.3585 and 0.3795
- ATP consumption (PfAsnRS; 100 μM OSM-S-106, PfAsnRS + tRNA, 0 μM = 100, 100 µM): 21.4279 and 12.1476
- ATP consumption (PfAsnRS; 100 μM OSM-S-106, PfAsnRS - tRNA, 0 μM = 100, 100 µM): 100.893 and 101.422 and 99.2831 and 94.8016 and 84.8517
- ATP consumption (PfAsnRS; 100 μM OSM-S-106, PfAsnRS, normalised to 1 (Fig 3C), 100 µM): 0.3092 and 0.3431
- ATP consumption (PfAsnRS; 200 μM OSM-S-106, PfAsnRS - tRNA, 0 μM = 100, 200 µM): 112.741 and 109.993 and 91.5345 and 106.529 and 72.1689
- ATP consumption (PfAsnRS; 200 μM OSM-S-106, PfAsnRS, normalised to 1 (Fig 3C), 200 µM): 0.2731 and 0.3306
- ATP consumption (PfAsnRS; 500 μM OSM-S-106, PfAsnRS - tRNA, 0 μM = 100, 500 µM): 107.256 and 120.979 and 131.723 and 125.52 and 90.3898 and 80.1015
- IC50 (PfAsnRS; IC50, ATP consumption, 0.05 μM PfAsnRS, E. coli tRNA present, 37 °C, 1 h (Fig. 3C, D)): 6.2 µM
- IC50 (PfAsnRS; IC50, ATP consumption, minus E. coli tRNA, 0.5 μM enzyme, […] (Fig. 3B)): > 500 µM
- IC50 (PfAsnRS; IC50, ATP consumption, plus E. coli tRNA, 0.5 μM enzyme, 37 °C, […] (Fig. 3B)): 7.3 µM
- IC50 (PfAsnRS; concentration needed to induce 50% inhibition of ATP consumption): ~1 µM
- Degradation half-life [3]: 395/619
- ATP consumption (HsAsnRS; 0.1 μM OSM-S-106): 0.9809 and 0.9695 and 0.9878
- IC50 (HsAsnRS; 0.2 μM HsAsnRS, E. coli tRNA present, 37 °C, 1 h (Fig. 3C, D)): > 100 µM
- ATP consumption (HsAsnRS; 1 μM OSM-S-106): 0.993 and 0.9826 and 1
- ATP consumption (HsAsnRS; 3 μM OSM-S-106): 0.9931 and 0.9791 and 0.9532
- ATP consumption (HsAsnRS; 10 μM OSM-S-106): 0.9721 and 1 and 0.9745
- ATP consumption (HsAsnRS; 30 μM OSM-S-106): 0.9297 and 0.9566 and 0.9615
- ATP consumption (HsAsnRS; 100 μM OSM-S-106): 0.955 and 0.928 and 0.9784
- ATP consumption (HsAsnRS; 200 μM OSM-S-106): 0.929 and 0.9898
- stability during incubation with rat hepatocytes [4]: stable
- IC50 ([5]; DD2, parasite Dd2-B2-2 (parent)): 79 ± 12 nM
- IC50 ([5]; DD2, parasite Dd2-B2-3 (parent)): 80 nM
- IC50 ([5]; DD2, parasite Dd2-OSM-2A6): 700 nM
- IC50 ([5]; DD2, parasite Dd2-OSM-2A9): 320 nM
- IC50 ([5]; DD2, parasite Dd2-OSM-2B2): 700 nM
- IC50 ([5]; DD2, parasite Dd2-OSM-2D6): 780 nM
- IC50 ([5]; DD2, parasite Dd2-OSM-3E5): 160 nM
- IC50 ([5]; DD2, parasite Dd2-OSM-3H7): 220 nM
